Consider 2 compounds from patent publication US20050048508A1, “Trehalose receptor and method for detecting trehalose with the same” (KABUSHIKI KAISHA HAYASHIBARA SEIBUTSU KAGAKU KENKYUJO, priority 2002, published 2005).

In the experiment the target is T1, T1R3 with G protein α-subunits (α15 and α16/Z chimeric protein) (Mus musculus, UniProt Q925D8, I706N).
T1 construct: expressed in transfected cells; host or cells: 293 cells, RCB 1637 (human embryonic kidney)
T1 sequence (Q925D8 21-858 I706N): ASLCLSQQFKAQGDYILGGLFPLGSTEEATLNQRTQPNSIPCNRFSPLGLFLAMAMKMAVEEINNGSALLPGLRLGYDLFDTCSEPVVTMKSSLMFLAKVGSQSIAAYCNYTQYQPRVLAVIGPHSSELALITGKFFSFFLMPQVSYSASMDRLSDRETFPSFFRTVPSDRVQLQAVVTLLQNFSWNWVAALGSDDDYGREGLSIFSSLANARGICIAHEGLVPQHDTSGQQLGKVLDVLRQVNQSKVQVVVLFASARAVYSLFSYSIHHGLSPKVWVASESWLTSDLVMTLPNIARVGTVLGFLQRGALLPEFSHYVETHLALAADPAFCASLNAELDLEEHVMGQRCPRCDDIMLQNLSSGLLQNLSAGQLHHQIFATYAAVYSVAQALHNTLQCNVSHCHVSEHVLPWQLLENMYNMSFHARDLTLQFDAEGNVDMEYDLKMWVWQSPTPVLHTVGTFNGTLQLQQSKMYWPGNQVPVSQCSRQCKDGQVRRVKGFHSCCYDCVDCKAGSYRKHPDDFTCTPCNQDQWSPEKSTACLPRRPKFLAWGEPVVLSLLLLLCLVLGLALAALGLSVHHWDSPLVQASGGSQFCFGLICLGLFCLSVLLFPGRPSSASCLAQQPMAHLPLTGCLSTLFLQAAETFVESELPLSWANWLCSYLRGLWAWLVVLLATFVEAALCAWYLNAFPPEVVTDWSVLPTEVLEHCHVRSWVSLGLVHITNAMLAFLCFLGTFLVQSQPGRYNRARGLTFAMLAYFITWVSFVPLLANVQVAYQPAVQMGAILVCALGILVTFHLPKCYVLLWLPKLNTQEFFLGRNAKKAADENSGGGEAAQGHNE
Nature of the experiment: Intracellular calcium ion assay, 293 cells coexpressing G protein α-subunits and T1R3 (trehalose receptor). Type of experiment: cell-based. Here is the method: The coexpression vector for the G protein α-subunit α15 and the G protein α16/Z chimeric protein (hereinafter designated as “G protein α-subunits”) obtained in Example 1-3 was gene transferred to 293 cells, RCB 1637, a human embryonic kidney cell line, available from the Riken Bioresource Center, Ibaraki, Japan, by conventional lipofection. The gene transferred cells were suspended in Dulbecco's Modified Eagle's Medium (D-MEM) supplemented with 1 mg/L of “PUROMYCIN”, a trade mane of puromycin commercialized by Edge Biosystems, MD, USA, and 10% (v/v) of fetal calf serum to give a cell density of 2×10^6 cells/ml and cultured in a plastic petri dish for cell culture. After 10 to 14 days of incubation, a puromycin-resistant cell colony was collected and confirmed its production of the G protein α-subunit proteins with an index of their mRNA level by conventional RT-PCR. Thus, a cell line capable of expressing the G protein α-subunit proteins was established. To the cells were gene transferred an expression vector for the sweet taste receptor protein T1R1, T1R2, or T1R3 in Example 2-2; or a coexpression vector for a pair of T1R1 and T1R2, T1R1 and T1R3, or T1R2 and T1R3 by conventional lipofection. The resulting cells were suspended in D-MEM supplemented with 1 mg/L of “PUROMYCIN”, 500 mg/L of “GENETICIN”, and 10% (v/v) of fetal calf serum and cultured in a plastic petri dish for cell culture. After 10 to 14 days of incubation, a cell colony resistant to both of the above drugs was collected and confirmed that the transferred gene had been expressed intracellularly as expected by conventional RT-PCR at a mRNA level. Thus, a cell, which had coexpressed the desired G proteins and sweet taste receptors, was obtained. As a control, a cell, into which an expression vector with no G protein α-subunit protein gene or sweet taste receptor protein gene, was prepared and used.
The captioned reactivity test was conducted according to a conventional intracellular calcium ion assay: 293 Cells prepared in Example 3, capable of coexpressing the G protein α-subunits and the sweet taste receptor(s), were cultured in a plastic petri dish for cell culture until reaching its confluent phase. Thereafter, the cells were detached from the inner surface of the petri dish with a 0.05% (v/v) trypsin solution and a 0.53 mM EDTA solution, suspended in D-MEM supplemented with 10% (v/v) fetal calf serum to give a cell density of 1×10^6 cells/ml, and allowed to intake “FLUO-4. AM”, a reagent for detecting intracellular calcium ion commercialized by Molecular Probes Inc., Ore., USA, by adding to the cell suspension to give a final concentration of 2 μM and incubating the cells at 37 ° C. for 30 to 90 min. The resulting cells were washed with a buffer for detecting calcium ion, which contained 10 mM HEPES (pH 7.4), 130 mM sodium chloride, 5.4 mM potassium chloride, 2 mM calcium chloride, 1 mM magnesium chloride, 5.5 mM D-glucose, 0.1% (v/v) calf serum albumin, and 1 mM sodium pyruvate to remove the reagent remained extracellularly; suspended in a fresh preparation of the same buffer to give a cell density of 2.67 ×10^7 cells/ml; filtered with a membrane with a pore size of 100 μm mesh; and allowed to stand at 25° C. for 30 min. Two milliliters of the resultant cell suspension was injected into a glass cuvette, commercialized by Hitachi, Ltd., Tokyo, Japan, and analyzed on “HITACHI 650-40”, a fluorescence spectrophotometer commercialized by Hitachi, Ltd., Tokyo, Japan. […]
In general terms: A change in cytosolic calcium serves as a functional read-out for many receptors and channels.

Setting [1] is: 293 cells: T1R3 + G protein α-subunits, 0.67 ml of 1 M saccharide solution added to 2 ml cell suspension, FLUO-4 AM.
The mark [2] stands for this setting: Table 4: sweet taste substances on cells coexpressing G protein α-subunits and T1R3, measured similarly as in Example 4.

SMILES strings stand for the structures.

Take `OC[C@H]1O[C@@](CO)(O[C@H]2O[C@H](CO)[C@@H](O)[C@H](O)[C@H]2O)[C@@H](O)[C@@H]1O` [Sucrose, reference compound]: the “Influx of calcium ion” value reads like this: under setting [1], “Negative”; under setting [2], “Negative”.

`OC[C@H]1O[C@H](O[C@H]2O[C@H](CO)[C@@H](O)[C@H](O)[C@H]2O)[C@H](O)[C@@H](O)[C@@H]1O` [Trehalose]: the “Influx of calcium ion” value is reported as “Positive” under setting [1]; “reacted” (293 cells: T1R3 + G protein α-subunits, 0.67 ml of 1 M saccharide solution added to 2 ml cell suspension, FLUO-4 AM, listed as trehalose); “Positive” under setting [2].
